Tests used:
Conditions in all cases: data not shown
CtPilB = CtPilB (Chloracidobacterium thermophilum, UniProt G2LDI3); test: Malachite green ATPase assay, dose response (benchtop); format: biochemical
Method: The full-length CtPilB and the CtPilBΔN variant (with the first 139 residues at the N terminus truncated) were purified as preciously described ([29]). The HTS was conducted using 384-well microplates (Greiner, cat no. 781101). Each microwell for the screen contained a 15-μL reaction mixture consisting of 75 nM CtPilB, 0.5 mM ATP, 20 μM of a library compound, and 2% DMSO in activity buffer (50 mM N-tris(hydroxymethyl)methyl-3-aminopropanesulfonic acid [TAPS], 50 mM Tris, 75 mM KCl, 50 mM sodium acetate, 5 mM MgCl2, 50 mM ZnCl2 [pH 8.7]) ([29]). Reaction mixtures were incubated at 55°C for 10 min and transferred to ice for 5 min to stop the enzymatic reaction. MG reagent (50 μL) was added to each well for color development. After a 15-minute incubation, 5 μL of 34% (wt/vol) sodium-citrate (MP Chemicals) was added and the plate was mixed by shaking ([28], [29]). Absorbance at 620 nm (A620) was measured using a SpectraMax M5 microplate reader at room temperature. The HTS was performed at the Virginia Tech Center for Drug Discovery (VTCDD) Screening Laboratory.
The effects of inhibitors on the ATPase activity of CtPilB and CtPilBΔN and the binding of MANT-ATP were determined as described previously ([28], [29]). Stock solutions were prepared by dissolving benserazide hydrochloride (Alfa Aesar) or levodopa (Spectrum Chemical Mfg. Corp.) in dimethyl sulfoxide (DMSO; Fisher Biotech). Next, 10× working stocks for given concentrations of an inhibitor were freshly prepared before their use in an experiment. GraphPad Prism v7.04 was used for curve fitting and Student’s t test was used for statistical analysis.

M. xanthus S motility = test: T4P-mediated social (S) motility, colony expansion on soft agar; format: cell-based, Myxococcus xanthus
Excerpt: Benserazide and levodopa were examined to determine whether they could impact the T4P assembly function of PilB in vivo using M. xanthus as the model bacterium ([28]). […] Three M. xanthus strains were used for these experiments. Strain DK10416 lacks S motility because it is a pilB deletion (ΔpilB) mutant ([40]). The other two strains both assemble T4P and are proficient in S motility ([30]). Strain YZ1674 produces the wild-type (WT) M. xanthus PilB (MxPilB). YZ2232 expresses MC3PilB, a PilB chimera with the N terminus of MxPilB fused to the C-terminal ATPase domain of CtPilB ([30]). The PilB ATPase domains of MxPilB and MC3PilB are highly similar, with 66% shared identity and 77% similarity (Fig. S1).
FIG 5 Benserazide and levodopa inhibit T4P-mediated social (S) motility in Myxococcus xanthus. Expansion rates (cm/day) of the MxPilB (YZ1674) and the MC3PilB (YZ2232) strains on soft agar plates by S motility in the presence of (A and C) benserazide and (B and D) levodopa after 5 days of incubation. Results from three independent experiments are shown, each performed in quintuplicates with data points represented by dots of the same color. Horizontal black lines represent overall averages. Expansion rates were normalized by subtracting that of the ΔpilB strain, which has no S motility (also see Fig. S4). Asterisks (*) indicate that the values at the indicated concentrations are statistically different (P < 0.05) from those of the no-inhibitor control.
M. xanthus was grown and maintained at 32°C in Casitone-yeast extract (CYE) medium ([49]). Motility assays were conducted with strains DK10416 (ΔpilB) ([40]), YZ1674 (ΔpilB att::MxpilB) ([50]), and YZ2232 (ΔpilB att::MC3pilB) ([30], [51]) as previously described ([28]). One modification was that 10% India ink was included in the cell suspension to mark the initial spot on agar plates. All experiments were conducted in quintuplicates and the diameter of the initial spot, as marked by India ink, was subtracted for data analysis.

[1] = test system: A. nosocomialis twitching motility; test: Twitching motility, crystal violet stained twitching area; format: cell-based, Acinetobacter nosocomialis
Excerpt: The inhibitors may thus interact with conserved features of the PilB ATPase family. A. nosocomialis PilB ([19]), whose N terminus is not similar to the MshEN domain (data not shown), shares ~53% identity and ~74% homology with MxPilB and MC3PilB in the ATPase domain (Fig. S1). We analyzed whether benserazide and levodopa could impact the T4P-powered twitching motility ([19], [44]) of A. nosocomialis (Fig. 7), an opportunistic pathogen in the Acinetobacter calcoaceticus-Acinetobacter baumannii (ACB) complex ([45]). As shown in Fig. 7A and B and Fig. S7, benserazide and levodopa impede the twitching motility of WT A. nosocomialis in a concentration-dependent manner.
FIG 7 Benserazide and levodopa inhibit Acinetobacter nosocomialis twitching motility and biofilm formation. (A and B) Twitching motility is correlated with the twitching area (cm^2) of the A. nosocomialis wild-type (WT) strain in the presence of (A) benserazide or (B) levodopa, with the control (no inhibitor) normalized to 1. Data are from 3 independent experiments, each performed in triplicates and represented by dots of the same color. (C and D) Biofilms formed by A. nosocomialis with (C) benserazide or (D) levodopa were analyzed by a microplate assay with crystal violet (CV) staining. Results from three independent experiments, each performed in quadruplicates and represented by dots of the same color, are shown. Horizontal lines indicate overall averages, and asterisks (*) signify that values at the indicated concentration are statistically different from those of the control (P < 0.05).
The A. nosocomialis wild-type M2 strain and an isogenic pilA deletion (ΔpilA) mutant ([19], [46]) were used in this study. They were grown and maintained using MacConkey medium at 37°C. The twitching motility of the M2 strain of A. nosocomialis was analyzed with 1% crystal violet (CV) for staining, and twitching areas were used as measures of motility as previously described ([46]). These motility assays were conducted in triplicates and the stained area of the ΔpilA mutant was subtracted from that of the WT for data analysis. A. nosocomialis biofilm formation was analyzed using microplates and CV staining as previously described ([53], [54]). The biofilm assays were conducted in quadruplicate in MacConkey medium with tissue culture-treated microtiter plates (Falcon). CV absorbance (Acv) was measured at 590 nm using Infinite M200 PRO in clear polystyrene 96-well microplates (ExtraGene). Absorbance for each well was read 16 times using Multiple Reads with the average as the final Acv value. Readings from control wells without bacteria were subtracted for normalization. Statistical differences were determined using a Student’s t test.

Chain of CtPilB (G2LDI3 entry or part of it): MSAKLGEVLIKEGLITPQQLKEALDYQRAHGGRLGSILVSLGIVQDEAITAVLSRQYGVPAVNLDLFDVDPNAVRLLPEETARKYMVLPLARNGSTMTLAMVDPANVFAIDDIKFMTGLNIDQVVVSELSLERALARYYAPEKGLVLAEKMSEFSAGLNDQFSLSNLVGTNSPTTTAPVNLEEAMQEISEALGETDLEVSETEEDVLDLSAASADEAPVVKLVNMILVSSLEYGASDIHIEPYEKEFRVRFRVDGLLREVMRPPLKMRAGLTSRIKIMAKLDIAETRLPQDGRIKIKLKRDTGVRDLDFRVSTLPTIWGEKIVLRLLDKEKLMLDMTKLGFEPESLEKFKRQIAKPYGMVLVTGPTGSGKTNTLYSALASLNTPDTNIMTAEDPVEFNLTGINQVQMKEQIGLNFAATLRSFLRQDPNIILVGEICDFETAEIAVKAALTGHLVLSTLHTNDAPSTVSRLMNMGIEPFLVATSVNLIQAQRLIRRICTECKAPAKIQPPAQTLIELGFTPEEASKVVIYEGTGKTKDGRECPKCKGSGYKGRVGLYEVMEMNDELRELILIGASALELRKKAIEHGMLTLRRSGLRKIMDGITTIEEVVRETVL

N[C@@H](Cc1ccccc1)C(=O)O [phenylalanine]
no inhibitory effect: inhibitory effect on CtPilB in vitro (CtPilB) | inhibitory effect on motility of M. xanthus in vivo (M. xanthus S motility) | inhibitory effect on motility of A. nosocomialis in vivo [1]

N[C@@H](Cc1ccc(O)cc1)C(=O)O [tyrosine, 4-monohydroxyphenylalanine]
no inhibitory effect: inhibitory effect on CtPilB in vitro (CtPilB) | inhibitory effect on motility of M. xanthus in vivo (M. xanthus S motility) | inhibitory effect on motility of A. nosocomialis in vivo [1]

Reference: publication PMC9769694, “Discovery of Two Inhibitors of the Type IV Pilus Assembly ATPase PilB as Potential Antivirulence Compounds” (Microbiology Spectrum, 2022)
